Literature values as cited in patent US20130204238A1, “COMBINATION THERAPY” (FOLLICA, INC, priority 2010, published 2013).

Molecular target: GSK3β (Homo sapiens, UniProt P49841)
Details: compared with other indirubin derivatives

Chain of GSK3β (P49841 whole entry, species assumed): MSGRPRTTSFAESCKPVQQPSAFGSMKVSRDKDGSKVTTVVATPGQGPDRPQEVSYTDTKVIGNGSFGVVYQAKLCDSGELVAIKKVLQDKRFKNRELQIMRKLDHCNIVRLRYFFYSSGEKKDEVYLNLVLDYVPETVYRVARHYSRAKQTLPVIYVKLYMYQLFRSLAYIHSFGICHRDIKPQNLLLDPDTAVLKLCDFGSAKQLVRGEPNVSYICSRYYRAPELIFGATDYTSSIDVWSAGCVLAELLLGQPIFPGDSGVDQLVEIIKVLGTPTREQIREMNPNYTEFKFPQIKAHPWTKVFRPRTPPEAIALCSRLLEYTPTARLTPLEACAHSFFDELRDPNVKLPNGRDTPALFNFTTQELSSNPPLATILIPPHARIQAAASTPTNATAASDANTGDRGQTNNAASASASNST

| Compound | pharmacological properties | toxicity |
| --- | --- | --- |
| indirubin 3′-monoxime | better pharmacological properties | – |
| O=C1Nc2ccc(Cl)cc2/C1=C1/Nc2ccccc2C1=O [5-chloroindirubin] | better pharmacological properties | reduced toxicity |
